Consider 34 molecules from ChEMBL document CHEMBL1123047, “Quantitative evaluation of the beta 2-adrenoceptor affinity of phenoxypropanolamines and phenylethanolamines” (J Med Chem, 1985).

Data set [1] addresses Beta-2 adrenergic receptor (Bos taurus, UniProt Q28044). The following applies: read-out: Kd app.
Description: (§2) Affinity for cow beta-2 adrenergic receptor by measuring displacement (-)-[3H]dihydroalprenolol (DHA)
Data set [2] concerns the target Beta-2 adrenergic receptor (Bos taurus) (UniProt Q28044).
Description: as §2
Data set [3] is described as follows: (§1) Partition coefficient (logP). The following applies: octanol/water.
A short description of data set [4]: as §1. The following applies: octanol/water. Format: physicochemical.

Chain of Beta-2 adrenergic receptor (Bos taurus) (Q28044 whole entry, looked up): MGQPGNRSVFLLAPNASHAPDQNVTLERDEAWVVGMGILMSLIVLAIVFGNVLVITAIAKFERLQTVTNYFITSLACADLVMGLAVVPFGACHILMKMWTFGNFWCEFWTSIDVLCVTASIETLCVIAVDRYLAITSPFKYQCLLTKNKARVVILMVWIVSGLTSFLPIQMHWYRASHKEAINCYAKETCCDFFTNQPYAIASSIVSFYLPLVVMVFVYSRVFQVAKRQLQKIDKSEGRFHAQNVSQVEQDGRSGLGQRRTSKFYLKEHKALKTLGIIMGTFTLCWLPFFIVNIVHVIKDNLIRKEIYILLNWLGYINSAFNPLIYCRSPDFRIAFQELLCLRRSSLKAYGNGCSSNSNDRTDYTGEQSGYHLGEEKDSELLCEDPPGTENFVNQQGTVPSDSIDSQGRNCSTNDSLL
Chain of Beta-2 adrenergic receptor (Q28044 whole entry): as the sequence (Q28044 whole entry, looked up) above

In the case of `CC(C)NCC(O)COc1ccccc1C#N` (centres undefined), in data set [1], the Kd is 21.9 nM. This molecule had a -Log KD in data set [2] of 7.96.

For the molecule `Cc1cc(C)cc(OCC(O)CNC(C)C)c1` (centres undefined), the Kd in data set [1] was determined as 10.2 nM. In data set [2], this molecule showed a -Log KD of 8.29.

Take `CC(C)NCC(O)c1cc(Cl)c(N)c(Cl)c1` (centres undefined): in data set [1], the Kd was 58 nM. In data set [2], this molecule gave a -Log KD of 7.54.

In the case of `CC(C)NCC(O)COc1ccccc1CO` (centres undefined), the Kd in data set [1] was determined as 50.1 nM. In data set [2], this molecule had a -Log KD of 7.6.

As to `CC(C)NC[C@H](O)COc1ccc(O)cc1` [PRENALTEROL], the Kd in data set [1] was 1070 nM. The molecule also gave a -Log KD in data set [2] of 6.27.

On to `CC(C)(C)NCC(O)c1ccccc1Cl` (centres undefined) [TULOBUTEROL], for which the Kd in data set [1] was 130 nM.

On to `Cc1ccccc1OCC(O)CNC(C)C` (centres undefined), for which the Kd in data set [1] turned out to be 10.2 nM. The molecule also came in with a -Log KD in data set [2] of 8.29.

On to `CC(C)NCC(O)COc1ccccc1C1CC1` (centres undefined) [PROCINOLOL], for which the Kd in data set [1] stood at 0.39 nM. In data set [2], this molecule gave a -Log KD of 9.41.

On to `C#CCOc1ccccc1OCC(O)CNC(C)C` (centres undefined), for which the Kd in data set [1] was determined as 2.14 nM. In data set [2], the -Log KD is 8.97.

Turning to `CC(C)(C)NCC(O)c1ccc(O)c(C(N)=O)c1` (centres undefined), the Kd in data set [1] was 470 nM.

Consider `Oc1cccc(O)c1` [RESORCINOL], for which the lipophilicity (logP) in data set [3] came out at 0.8.

Consider `CCC(C)c1cccc(OCC(O)CNC(C)C)c1` (centres undefined), for which the Kd in data set [1] came out at 17.8 nM. This molecule yielded a -Log KD in data set [2] of 8.05.

Turning to `Cc1cccc(OCC(O)CNC(C)C)c1` (centres undefined) [TOLIPROLOL], the Kd in data set [1] stood at 43.6 nM. Besides, the -Log KD in data set [2] was found to be 7.66.

For `CC(C)NCC(O)c1ccc(O)cc1` (centres undefined) [DETERENOL], in data set [1], the Kd stood at 4270 nM.

In the case of `CC(C)NCC(O)c1cccc(O)c1` (centres undefined) [METATEROL], the Kd in data set [1] was 910 nM. Further, the -Log KD in data set [2] was 6.34.

On to `CCCc1ccccc1OCC(O)CNC(C)C` (centres undefined), for which the Kd in data set [1] is 0.63 nM. The same molecule came in with a -Log KD in data set [2] of 9.2.

For the molecule `CC(C)NCC(O)c1ccc([N+](=O)[O-])cc1` (centres undefined) [NIFENALOL], the Kd in data set [1] was determined as 1320 nM.

As to `NC(=O)c1ccccc1O` [SALICYLAMIDE], the logP in data set [4] was found to be 1.28.

`CC(C)(C)NCC(O)c1ccc(O)c(O)c1` (centres undefined) [COLTEROL]: the Kd in data set [1] turned out to be 600 nM. Besides, the -Log KD in data set [2] came to 6.55.

As to `CC(C)(C)NCC(O)c1ccc(O)c(CO)c1` (centres undefined), the -Log KD in data set [2] was determined as 6.58.

For `CC(C)(C)NCC(O)c1ccc(O)c(N)c1` (centres undefined), in data set [1], the Kd came to 2040 nM. The same molecule displayed a -Log KD in data set [2] of 5.99.

With `CNc1cc(C(O)CNC(C)(C)C)ccc1O` (centres undefined), the Kd in data set [1] amounted to 520 nM.

Consider `CC(C)NCC(O)c1cc(O)cc(O)c1` (centres undefined) [METAPROTERENOL], for which the Kd in data set [1] is 9120 nM.

Molecule `CC(C)NCC(O)c1ccc(NS(C)(=O)=O)cc1` (centres undefined) yielded a -Log KD in data set [2] of 6.57.

Molecule `OCc1ccccc1O` [SALICYL ALCOHOL] returned a logP in data set [3] of 0.73.

As for `CC(C)(C)NCC(O)c1cc(Cl)c(O)c(Cl)c1` (centres undefined), in data set [1], the Kd stood at 1950 nM. The molecule further showed a -Log KD in data set [2] of 7.41.

For `Nc1ccccc1O` [QUESTIOMYCIN B], the logP in data set [3] was determined as 0.52.

In data set [2], `CC(C)(C)NCC(O)c1cc(O)cc(O)c1` (centres undefined) gave a -Log KD of 5.73.

For `CC(C)NCC(O)c1ccc2ccccc2c1` (centres undefined) [PRONETALOL], the Kd in data set [1] worked out at 160 nM. Further, the -Log KD in data set [2] was 7.1.

Consider `CC(C)NCC(O)COc1ccccc1` (centres undefined), for which the Kd in data set [1] was 53.7 nM. This molecule came in with a -Log KD in data set [2] of 7.57.

On to `CC(C)(C)NCC(O)c1ccc(O)cc1` (centres undefined), for which, in data set [1], the Kd worked out at 1260 nM. The molecule further yielded a -Log KD in data set [2] of 6.2.

Turning to `CC(C)NCC(O)c1ccc(O)c(CO)c1` (centres undefined), the Kd in data set [1] was determined as 3160 nM. This molecule had a -Log KD in data set [2] of 5.8.

With `CC(C)NCC(O)c1ccc(O)c(N)c1` (centres undefined), in data set [1], the Kd is 5130 nM. The molecule also had a -Log KD in data set [2] of 5.59.

`CCCc1ccccc1` gave a logP in data set [3] of 3.57.
